Paper PMC6382696, “Drug Repurposing: The Anthelmintics Niclosamide and Nitazoxanide Are Potent TMEM16A Antagonists That Fully Bronchodilate Airways” (Frontiers in Pharmacology, 2019)

Target: T1, TMEM16A (acd) (Homo sapiens, UniProt Q5XXA6)
T1 sequence (Q5XXA6 1-986): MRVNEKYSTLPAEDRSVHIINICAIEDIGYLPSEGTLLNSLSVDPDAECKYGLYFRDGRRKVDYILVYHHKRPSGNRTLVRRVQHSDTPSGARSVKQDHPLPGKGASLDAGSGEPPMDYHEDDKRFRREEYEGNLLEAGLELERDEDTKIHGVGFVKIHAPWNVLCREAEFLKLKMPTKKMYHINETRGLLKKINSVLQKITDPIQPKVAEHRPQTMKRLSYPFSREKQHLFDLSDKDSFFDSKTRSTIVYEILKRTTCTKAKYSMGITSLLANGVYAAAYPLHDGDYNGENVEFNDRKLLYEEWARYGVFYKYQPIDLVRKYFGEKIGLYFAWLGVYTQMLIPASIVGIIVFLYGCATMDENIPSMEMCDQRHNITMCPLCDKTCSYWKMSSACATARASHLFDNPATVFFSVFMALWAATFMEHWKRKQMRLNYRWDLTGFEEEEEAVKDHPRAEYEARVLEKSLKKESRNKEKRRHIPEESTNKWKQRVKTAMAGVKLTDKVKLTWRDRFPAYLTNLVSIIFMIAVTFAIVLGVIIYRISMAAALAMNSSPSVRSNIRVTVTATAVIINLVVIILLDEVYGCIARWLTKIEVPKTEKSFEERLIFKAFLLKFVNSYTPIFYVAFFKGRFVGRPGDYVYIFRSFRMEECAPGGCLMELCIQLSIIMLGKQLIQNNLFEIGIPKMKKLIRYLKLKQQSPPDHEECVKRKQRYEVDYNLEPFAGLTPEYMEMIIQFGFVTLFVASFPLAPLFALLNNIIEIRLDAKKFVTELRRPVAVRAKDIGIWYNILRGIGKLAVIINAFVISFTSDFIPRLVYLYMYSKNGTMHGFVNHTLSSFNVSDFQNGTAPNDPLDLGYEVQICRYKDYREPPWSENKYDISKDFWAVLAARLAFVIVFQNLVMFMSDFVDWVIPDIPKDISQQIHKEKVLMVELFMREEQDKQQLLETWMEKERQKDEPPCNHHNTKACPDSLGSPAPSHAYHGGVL
Experiment: QPatch whole-cell electrophysiology, HEK293 TMEM16A (acd)
Assay type: cell-based
Details: for IC50 / calcium-activated chloride current inhibited: QPatch; for IC50: outward current at +100 mV, 170 nM free intracellular calcium, ~60 s per concentration, read-out: TMEM16A Chloride Current (IC50); for effect on inward current at −100 mV, whole cell patch clamp: 170 nM free calcium, Vhold 0 mV; for time to achieve steady state block: single concentration; for calcium-activated chloride current inhibited: maximum antagonist activity
Excerpt: HEK293 cells stably expressing the TMEM16A (acd) variant were purchased from SB Drug Discovery. The HEK293 TMEM16A (abc) stable cell line was from ChanTest and COLO-205 cells were purchased from ATCC. The same standard buffers and recording conditions listed below were used for QPatch studies on all three cell lines.
Recording Solutions: were made weekly as below and stored at room temperature until used. It is recommended not to add ATP to internal solution until immediately before using on the QPatch. The external buffer (in mM) was 140 NaCl, 4 KCl, 2 CaCl2, 1 MgCl2, 10 HEPES, 10 Glucose, pH7.4, while the internal buffer (in mM) was 110 CsCl, 20 TEA-Cl, 5.374 CaCl2, 1.75 MgCl2, 10 EGTA, 10 HEPES, 4 Na2ATP, pH 7.2.
Once established in whole-cell configuration, cells were clamped to a holding potential (Vhold) of 0 mV on 48 well single hole patch plate. A standardized IV protocol was used to elicit ionic current through the TMEM16A chloride channel at 20 s intervals. Steady-state voltage pulses were from −100 mV to +100 mV in +20 mV steps for a duration of 500 ms. After each pulse the voltage was returned to −100 mV for 50 ms to obtain tail currents, and then returned to the holding potential of 0 mV until the beginning of the next sweep. […] This ensures a minimum of 60 s per concentration incubation before measuring current block. Currents were acquired at 10 kHz and filtered at 2 kHz, leak subtraction and Rseries were disabled. A 1 MΩ minimum resistance was set because cells are held in an open channel state and therefore resistance is low.
A cumulative concentration response was measured where each cell is exposed to five concentrations of test article with a dilution factor of 1:5 (e.g., 0.048, 0.24, 1.2, 6, and 30 μM). Cells were recorded for ∼60 s per solution/compound addition. Initially, external solution is applied twice to allow currents to stabilize. Then vehicle (from the saline reservoir) is added twice to monitor any effect 0.3% DMSO might have on currents. This leads directly into the concentration runs by applying Concentration 1 (single addition) for 1 min. Concentration 2 is then applied for the subsequent minute, etc. Recovery/washout was monitored for a final minute with a final external solution addition.
[…] […] Each cell’s current magnitude was then normalized to itself at the initial 0.3% vehicle control period prior to compound application. This step is to account for differences in current size for each cell. Normalized responses to test article were plotted against their concentrations to reveal a concentration-inhibition plot.
A Normalized Group Hill fit was then performed on the plotted results to yield a pooled IC50 value, reconstructed from a minimum of two cells/concentration. The baseline response as well as the full response were constrained to 1 and 0, respectively.

SMILES | IC50 | effect on inward current at −100 mV, whole cell patch clamp | time to achieve steady state block (1.11 μM) | time to achieve steady state block (3.3 μM) | calcium-activated chloride current inhibited
CCc1c(C)nc(SCC(=O)Nc2nc(-c3ccc(OC)cc3)cs2)[nH]c1=O [T16Ainh-A01] | > 30 µM |  |  |  | 
O=C(Nc1ccc([N+](=O)[O-])cc1Cl)c1cc(Cl)ccc1O [Niclosamide] | 2.37 ± 2.11 µM | paradoxical increase | about 10 min | approximately 4 min | Over 80%
O=C(O)c1cccnc1Nc1cccc(C(F)(F)F)c1 [Niflumic Acid] | 8.54 ± 6.75 µM | stimulating |  |  | 
O=C(Nc1ccc(Cl)cc1)c1cc(Cl)ccc1O [Cpd 5] | 2.26 ± 0.65 µM |  |  |  | 
Oc1ccc(Cl)cc1Cc1cc(Cl)ccc1O [Dichlorophen] | 4.66 ± 2.2 µM |  |  |  | 
O=C(Nc1ncc([N+](=O)[O-])s1)c1cccs1 [NTTP] | 4.69 µM |  |  |  | 
O=C(Nc1ncc([N+](=O)[O-])s1)c1ccccc1O [Tizoxanide] | 4.42 ± 2.4 µM |  |  |  | 
COc1cc(Nc2ccc([N+](=O)[O-])cc2C(=O)O)cc2ccccc12 [MONNA] | 13.6 ± 9.76 µM | inhibited |  |  | 
CCc1oc2ccccc2c1C(=O)c1cc(Br)c(O)c(Br)c1 [Benzbromarone] | 4.09 ± 2.08 µM | inhibited |  |  | 
COc1cc([N+](=O)[O-])ccc1NC(=O)c1cc(Cl)c2ccccc2c1O [Cpd 4] | 0.62 ± 0.37 µM | no significant effect |  |  | 
O=C(Nc1ccc([N+](=O)[O-])cc1)c1cc(Cl)c2ccccc2c1O [Cpd 3] | 0.61 ± 0.62 µM | no significant effect |  |  | 
N#Cc1c(C(F)(F)F)cc(O)n2c1nc1ccccc12 [1PBC] | 2.81 ± 1.25 µM | paradoxical increase |  |  | Over 80%
